Reference: ChEMBL document CHEMBL1130504, “Synthesis and biological activity of artificial analogs of mycalamide A” (Bioorg Med Chem Lett, 1997)
≈ marks a conversion by molar mass, not a printed value.

Experiments:
HEL [1] = assay: In vitro inhibitory concentration for antiviral activity was tested against HEL cells; type: functional, cell-based; settings: Homo sapiens
HEL [2] = assay: (§1) In vitro minimum inhibitory concentration for antiviral activity was tested against Varicella-Zoster virus(VZV); type: functional; settings: Homo sapiens
HeLa = assay: In vitro inhibitory concentration for cytotoxic activity was tested against HeLa cells; type: functional, cell-based; settings: Homo sapiens
Vero [3] = assay: In vitro inhibitory concentration for antiviral activity was tested against vero cells; type: functional, cell-based; settings: Chlorocebus sabaeus
Vero [4] = assay: (§2) In vitro minimum inhibitory concentration for antiviral activity was tested against Herpes simplex virus type 1(HSV-1); type: functional; settings: Chlorocebus sabaeus
Human alphaherpesvirus 3 = assay: as §1; type: functional
Human alphaherpesvirus 1 = assay: as §2; type: functional

Structure (SMILES) | IC50 (HEL [1]) [mg/L] | MIC (HEL [2]) [mg/L] | IC50 (HeLa) [mg/L] | IC50 (Vero [3]) [mg/L] | MIC (Vero [4]) [mg/L] | MIC (Human alphaherpesvirus 3) [mg/L] | MIC (Human alphaherpesvirus 1) [mg/L]
C=C1C[C@](OC)([C@H](O)C(=O)N[C@@H]2OCO[C@H]3[C@@H]2O[C@H](C[C@H](O)CO)C(C)(C)[C@@H]3OC)O[C@H](C)[C@@H]1C | 12.5 (≈ 24.8 µM) | 1.56 (≈ 3.1 µM) | 3 (≈ 5.96 µM) | 12.5 (≈ 24.8 µM) | 12.5 (≈ 24.8 µM) | – | –
O=c1[nH]cc(F)c(=O)[nH]1 [FLUOROURACIL] | – | – | 3 (≈ 23.1 µM) | – | – | – | –
C=C1C[C@](OC)([C@@H](O)C(=O)N[C@@H]2OCO[C@H]3[C@@H]2O[C@H](C[C@H](O)CO)C(C)(C)[C@@H]3OC)O[C@H](C)[C@@H]1C | > 50 | 12.5 (≈ 24.8 µM) | > 10 | > 50 | 50 (≈ 99.3 µM) | – | –
C=C1C[C@](OC)([C@H](O)C(=O)N[C@H]2OCO[C@H]3[C@@H]2O[C@H](C[C@H](O)CO)C(C)(C)[C@@H]3OC)O[C@H](C)[C@@H]1C [MYCALAMIDE A] | < 0.391 | < 0.391 | < 0.03 | < 0.391 | < 0.391 | – | –
CO[C@@H]1[C@H]2OCO[C@H](NC(=O)[C@@H](O)[C@@]3(OC)CCC[C@@H](C)O3)[C@H]2O[C@H](C[C@H](O)CO)C1(C)C | 1.56 (≈ 3.27 µM) | < 0.391 | 0.03 (≈ 0.0628 µM) | 0.391 (≈ 0.819 µM) | 3.12 (≈ 6.54 µM) | – | –
C=C1C[C@@H](C)O[C@@](OC)([C@H](O)C(=O)N[C@@H]2OCO[C@H]3[C@@H]2O[C@H](C[C@H](O)CO)C(C)(C)[C@@H]3OC)C1 | > 50 | 1.56 (≈ 3.19 µM) | 3 (≈ 6.13 µM) | 50 (≈ 102 µM) | 50 (≈ 102 µM) | – | –
C=C1C[C@](OC)([C@@H](O)C(=O)N[C@H]2OCO[C@H]3[C@@H]2O[C@H](C[C@H](O)CO)C(C)(C)[C@@H]3OC)O[C@H](C)[C@@H]1C | 12.5 (≈ 24.8 µM) | < 0.391 | > 10 | 12.5 (≈ 24.8 µM) | 50 (≈ 99.3 µM) | – | –
CO[C@@H]1[C@H]2OCO[C@@H](NC(=O)[C@@H](O)[C@@]3(OC)CCC[C@@H](C)O3)[C@H]2O[C@H](C[C@H](O)CO)C1(C)C | > 50 | 3.12 (≈ 6.54 µM) | > 10 | > 50 | 50 (≈ 105 µM) | – | –
C=C1C[C@](OC)([C@H](O)C(=O)N[C@@H]2OCO[C@@H]3[C@@H](OC)[C@@H]4OC(C)(C)OC[C@H]4O[C@@H]32)O[C@H](C)[C@@H]1C | > 50 | – | 10 (≈ 20.5 µM) | 50 (≈ 103 µM) | – | 12.5 (≈ 25.6 µM) | 50 (≈ 103 µM)
C=C1C[C@@H](C)O[C@@](OC)([C@H](O)C(=O)N[C@H]2OCO[C@H]3[C@@H]2O[C@H](C[C@H](O)CO)C(C)(C)[C@@H]3OC)C1 | < 0.391 | < 0.391 | < 0.03 | < 0.391 | < 0.391 | – | –
C=C1C[C@](OC)([C@H](O)C(=O)N[C@H]2OCO[C@@H]3[C@@H](OC)[C@H](O)[C@@H](CO)O[C@@H]32)O[C@H](C)[C@@H]1C | > 50 | 3.12 (≈ 6.98 µM) | 1 (≈ 2.23 µM) | 25 (≈ 55.9 µM) | 25 (≈ 55.9 µM) | – | –
C=C1C[C@](OC)([C@H](O)C(=O)N[C@H]2OCO[C@@H]3[C@@H](OC)[C@@H]4OC(C)(C)OC[C@H]4O[C@@H]32)O[C@H](C)[C@@H]1C | > 50 | – | 3 (≈ 6.15 µM) | > 50 | – | 12.5 (≈ 25.6 µM) | 50 (≈ 103 µM)
Nc1nc2c(ncn2COCCO)c(=O)[nH]1 [ACYCLOVIR] | > 50 | – | – | 50 (≈ 222 µM) | – | – | 1.56 (≈ 6.94 µM)
C=C1C[C@](OC)([C@H](O)C(=O)N[C@@H]2OCO[C@@H]3[C@@H](OC)[C@H](O)[C@@H](CO)O[C@@H]32)O[C@H](C)[C@@H]1C | > 50 | 25 (≈ 55.9 µM) | > 10 | > 50 | > 50 | – | –
